The subject of experiment [1] is platelets. Put plainly: Platelet aggregation by turbidimetric aggregometry. Format: cell-based, human. Conditions: PRP pre-treated with RA for 1 hour; collagen 1 μg/mL. On the procedure:
To validate the predictive power of the developed framework, direct experimental evidence of the predicted mechanistic role of Rosmarinic acid (RA) in VD was sought. […] Therefore, whether RA influenced platelet activation in vitro was evaluated. As platelets can be stimulated through different activation pathways, RA effects can, in principle, occur in any of them. To test these different possibilities, platelets were pretreated with RA and then activated with: 1) glycoprotein VI by collagen or collagen-related peptide (Collagen/CRPXL); 2) protease-activated receptors-1,4 by thrombin receptor activator peptide-6 (TRAP-6); 3) prostanoid thromboxane receptor by the thromboxane A2 analogue (U46619); and 4) P2Y1/12 receptor stimulation by adenosine diphosphate (ADP). […] Platelet aggregation was measured by turbidimetric aggregometry. […] Platelet aggregation was monitored for 6 minutes at 37° C. with a stir speed of 1000 rpm and the maximum extend of aggregation recorded using AGGRO/LINK®8 software. In some cases, dense granule release was simultaneously recorded by supplementing samples with Chrono-Lume® (Chrono-Log®, 395) according to the manufacturer's instructions.

For experiment [2], the system named is platelets. The experiment is described as follows: Platelet alpha granule secretion (P-selectin surface expression). Format: cell-based, human. Conditions: in response to U46619; RA pre-treatment 1 hour. On the procedure: To validate the predictive power of the developed framework, direct experimental evidence of the predicted mechanistic role of Rosmarinic acid (RA) in VD was sought. […] Therefore, whether RA influenced platelet activation in vitro was evaluated. As platelets can be stimulated through different activation pathways, RA effects can, in principle, occur in any of them. To test these different possibilities, platelets were pretreated with RA and then activated with: 1) glycoprotein VI by collagen or collagen-related peptide (Collagen/CRPXL); 2) protease-activated receptors-1,4 by thrombin receptor activator peptide-6 (TRAP-6); 3) prostanoid thromboxane receptor by the thromboxane A2 analogue (U46619); and 4) P2Y1/12 receptor stimulation by adenosine diphosphate (ADP). When the network distance between each stimulant receptor and the RA-VD-platelet module (FIG. 11A) was compared, it was observed that the receptors for Collagen/CRPXL, TRAP-6, and U46619 are closer than the random expectation, while the receptor for ADP is more distant (FIG. 11B). It is expected that platelets would be most affected by RA when treated with stimulants whose receptors are most proximal to the RA-VD-platelet module, i.e. Collagen/CRPXL, TRAP-6, and U46619. […] Percent-positive cells were determined by gating on fluorescence intensity compared to unstimulated samples.

As for `O=C(/C=C/c1ccc(O)c(O)c1)O[C@H](Cc1ccc(O)c(O)c1)C(=O)O` [rosmarinic acid], the collagen-mediated platelet aggregation result in experiment [1] is recorded as “inhibits”. The alpha granule secretion result in experiment [2] is on record as “dampened”.

The values above are taken from patent US20220184020A1, “Polyphenols as Modulators of Platelet Function” (Northeastern University, priority 2019, published 2022).
